The source of these data is patent US20080318943A1, “Compounds and Uses Thereof - 848” (ASTRAZENECA AB, priority 2007, published 2008).

For assay [1], the target named is T1, GABAA receptor α2β3γ2 (Homo sapiens, UniProt P18507+P47869).
T1 construct: expressed in transfected cells; host or cells: Xenopus laevis oocytes injected with cRNA
Nature of the assay: Two-electrode voltage-clamp potentiation of GABA EC10 current in Xenopus oocytes, GABAA2. Conditions: percentage potentiation of GABA EC10 current divided by that of diazepam. In kind it is cell-based. In short, it runs like this:
(§1)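 Human GABAA receptors expressed in Xenopus oocytes by cRNA injection (α:β:γ molar ratio ~1:1:10 for α1β2γ2, 1:1:1 for α2β3γ2), recorded 2-10 days later by two-electrode voltage clamp at −60 mV in ND-96, pH 7.5. Modulator preapplied 30 s before GABA at per-oocyte EC10. Peak-current percent potentiation over GABA alone, normalised to diazepam.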

The target of assay [2] is T2, GABAA2 receptors (α2, β3, γ2 receptor subunits transfected into Sf9 cells) (Homo sapiens, UniProt P18507+P47869).
T2 construct: host or cells: Sf9 cells (membranes)
T2 sequence (P47869 29-451): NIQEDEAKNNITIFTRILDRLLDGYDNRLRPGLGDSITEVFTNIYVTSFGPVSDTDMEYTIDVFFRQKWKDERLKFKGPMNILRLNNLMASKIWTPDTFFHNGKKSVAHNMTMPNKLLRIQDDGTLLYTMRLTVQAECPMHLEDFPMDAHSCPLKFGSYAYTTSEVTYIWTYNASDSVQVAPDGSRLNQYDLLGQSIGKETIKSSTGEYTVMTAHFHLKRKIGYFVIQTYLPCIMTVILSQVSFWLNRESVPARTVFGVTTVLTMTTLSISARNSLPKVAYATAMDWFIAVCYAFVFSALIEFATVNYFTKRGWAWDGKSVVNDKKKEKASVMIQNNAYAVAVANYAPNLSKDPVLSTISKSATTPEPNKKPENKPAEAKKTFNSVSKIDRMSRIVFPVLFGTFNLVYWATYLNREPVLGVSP
T2 sequence (P28472 26-473 partner): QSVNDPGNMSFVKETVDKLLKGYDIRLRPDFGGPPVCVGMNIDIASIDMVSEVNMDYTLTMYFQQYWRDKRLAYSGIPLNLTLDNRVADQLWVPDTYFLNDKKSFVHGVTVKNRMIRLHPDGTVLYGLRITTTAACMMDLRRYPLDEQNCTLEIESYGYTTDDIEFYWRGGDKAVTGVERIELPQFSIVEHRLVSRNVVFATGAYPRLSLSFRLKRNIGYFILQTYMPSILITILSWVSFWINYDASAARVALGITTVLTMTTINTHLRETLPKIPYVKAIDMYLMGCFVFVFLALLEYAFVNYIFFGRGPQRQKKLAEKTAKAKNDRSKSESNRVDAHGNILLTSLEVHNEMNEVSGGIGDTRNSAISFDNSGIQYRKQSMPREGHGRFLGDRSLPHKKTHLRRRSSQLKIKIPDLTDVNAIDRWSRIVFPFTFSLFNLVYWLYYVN
T2 sequence (P18507 40-475): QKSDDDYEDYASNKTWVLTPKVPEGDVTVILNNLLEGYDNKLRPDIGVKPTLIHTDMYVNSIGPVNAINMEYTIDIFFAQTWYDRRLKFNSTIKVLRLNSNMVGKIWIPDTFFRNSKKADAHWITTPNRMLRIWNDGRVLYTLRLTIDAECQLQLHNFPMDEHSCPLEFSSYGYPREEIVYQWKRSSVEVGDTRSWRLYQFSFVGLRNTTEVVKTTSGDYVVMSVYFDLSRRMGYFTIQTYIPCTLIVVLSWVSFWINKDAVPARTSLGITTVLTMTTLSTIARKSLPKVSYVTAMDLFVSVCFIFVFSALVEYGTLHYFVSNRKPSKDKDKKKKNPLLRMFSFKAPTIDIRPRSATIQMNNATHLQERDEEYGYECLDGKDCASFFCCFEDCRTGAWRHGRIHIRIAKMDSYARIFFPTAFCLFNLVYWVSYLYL
Nature of the assay: GABAA2 Binding Method ([3H]-Flunitrazepam displacement). To be noted: [3H]-Flunitrazepam ~2 nM, α2β3γ2 Sf9 membranes, 1 hr at 4° C. In short, it runs like this: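 Displacement of [3H]-flunitrazepam (~2 nM in assay) from recombinant human α2β3γ2 receptors in Sf9 membranes; 1 h incubation at 4 °C, harvest by filtration. Values reported as percent of control, IC50 and Ki.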

Assay [3] has as its target T3, GABAA receptor α1β2γ2 (Homo sapiens, UniProt P14867+P18507).
T3 construct: expressed in transfected cells; host or cells: Xenopus laevis oocytes injected with cRNA
Kind of assay: Two-electrode voltage-clamp potentiation of GABA EC10 current in Xenopus oocytes, GABAA1. In kind it is cell-based. To be noted: percentage potentiation of GABA EC10 current divided by that of diazepam. The method in brief:
as §1

Molecules are shown by their SMILES.

T1 sequence (P47869 29-451): as the sequence (P47869 29-451) above
T1 sequence (P28472 26-473 partner): as the sequence (P28472 26-473 partner) above
T1 sequence (P18507 40-475): as the sequence (P18507 40-475) above
T3 sequence (P14867 28-456): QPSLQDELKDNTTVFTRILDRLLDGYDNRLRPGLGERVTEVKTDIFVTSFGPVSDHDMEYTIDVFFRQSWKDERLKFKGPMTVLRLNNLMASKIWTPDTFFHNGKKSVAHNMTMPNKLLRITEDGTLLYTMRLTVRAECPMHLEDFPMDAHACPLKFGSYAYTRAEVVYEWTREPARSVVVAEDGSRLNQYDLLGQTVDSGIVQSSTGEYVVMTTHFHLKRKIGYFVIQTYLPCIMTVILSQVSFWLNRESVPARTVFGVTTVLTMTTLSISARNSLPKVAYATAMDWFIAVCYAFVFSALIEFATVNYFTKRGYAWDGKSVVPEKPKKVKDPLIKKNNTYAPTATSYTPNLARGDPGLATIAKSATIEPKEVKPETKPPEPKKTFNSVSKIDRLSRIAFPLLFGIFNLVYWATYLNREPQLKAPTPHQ
T3 sequence (P47870 25-512 partner limits assumed): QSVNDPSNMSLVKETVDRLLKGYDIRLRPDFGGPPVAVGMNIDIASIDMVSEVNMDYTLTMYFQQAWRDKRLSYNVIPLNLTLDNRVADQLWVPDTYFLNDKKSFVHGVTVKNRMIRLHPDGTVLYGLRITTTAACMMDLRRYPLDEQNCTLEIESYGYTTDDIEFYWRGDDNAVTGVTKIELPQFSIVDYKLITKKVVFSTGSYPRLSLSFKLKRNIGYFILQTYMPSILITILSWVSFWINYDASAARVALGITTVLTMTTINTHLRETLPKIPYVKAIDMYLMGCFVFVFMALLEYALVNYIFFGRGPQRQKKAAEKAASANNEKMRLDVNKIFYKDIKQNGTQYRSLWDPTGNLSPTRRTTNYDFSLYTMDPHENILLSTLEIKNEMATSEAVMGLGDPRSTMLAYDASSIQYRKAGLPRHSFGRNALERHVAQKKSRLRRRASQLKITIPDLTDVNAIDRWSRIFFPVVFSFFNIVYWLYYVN
T3 sequence (P18507 40-475): as the sequence (P18507 40-475) above

The Ki is the equilibrium dissociation constant of an inhibitor or competing ligand from its target. Read a low Ki as tighter binding. For `COc1ccc(-c2c(F)ccc3c(N)c4c(nc23)CN(C2CC2)C4=O)c(F)c1` [9-amino-2-cyclopropyl-6-fluoro-5-(2-fluoro-4-methoxyphenyl)-2,3-dihydro-1H-pyrrolo[3,4-b]quinolin-1-one], in assay [1], the “Relative Potentiation for GABAA2” value stood at 0.055. The Ki in assay [2] was found to be 7.27 nM. Further, the “Relative Potentiation for GABAA1” value in assay [3] is −0.036.
For the compound `CCN1Cc2nc3c(-c4ccc(OC)cc4F)cccc3c(N)c2C1=O` [9-amino-2-ethyl-5-(2-fluoro-4-methoxyphenyl)-2,3-dihydro-1H-pyrrolo[3,4-b]quinolin-1-one], the “Relative Potentiation for GABAA2” value in assay [1] stood at 0.036. Moreover, the Ki in assay [2] worked out at 7.14 nM. In addition, the “Relative Potentiation for GABAA1” value in assay [3] was −0.008.
Consider `CCN1Cc2nc3c(-c4cccc(F)c4OC)cccc3c(N)c2C1=O` [9-amino-2-ethyl-5-(3-fluoro-2-methoxyphenyl)-2,3-dihydro-1H-pyrrolo[3,4-b]quinolin-1-one], for which the “Relative Potentiation for GABAA2” value in assay [1] is given as 0.068. The same compound showed a Ki in assay [2] of 22.6 nM. In addition, the “Relative Potentiation for GABAA1” value in assay [3] stood at 0.052.
`CCN1Cc2nc3c(-c4ccc(OC)c(F)c4)cccc3c(N)c2C1=O` [9-amino-2-ethyl-5-(3-fluoro-4-methoxyphenyl)-2,3-dihydro-1H-pyrrolo[3,4-b]quinolin-1-one]: the “Relative Potentiation for GABAA2” value in assay [1] is listed as 0.065. For the same compound, in assay [2], the Ki stood at 42.5 nM. Moreover, the “Relative Potentiation for GABAA1” value in assay [3] worked out at 0.012.
With `CCN1Cc2nc3c(-c4ccc(OC)cc4F)c(F)ccc3c(N)c2C1=O` [9-amino-2-ethyl-6-fluoro-5-(2-fluoro-4-methoxyphenyl)-2,3-dihydro-1H-pyrrolo[3,4-b]quinolin-1-one], in assay [1], the “Relative Potentiation for GABAA2” value was 0.05. For the same compound, in assay [2], the Ki is 1.49 nM. For the same compound, in assay [3], the “Relative Potentiation for GABAA1” value was −0.04.
The corresponding values for `CCN1Cc2nc3c(-c4ccccc4F)c(F)ccc3c(N)c2C1=O` [9-amino-2-ethyl-6-fluoro-5-(2-fluorophenyl)-2,3-dihydro-1H-pyrrolo[3,4-b]quinolin-1-one] are 0.038, 1.51 nM and −0.04.
On to `CCCN1Cc2nc3c(-c4cccc(C)c4)cccc3c(N)c2C1=O` [9-amino-2-propyl-5-(3-methylphenyl)-2,3-dihydro-1H-pyrrolo[3,4-b]quinolin-1-one], for which the “Relative Potentiation for GABAA2” value in assay [1] is reported as 0.29. In assay [2], this compound returned a Ki of 44.6 nM. The “Relative Potentiation for GABAA1” value in assay [3] is given as 0.38.
For `COc1ccc(CN2Cc3nc4c(-c5cc(C)nn5C)cccc4c(N)c3C2=O)cc1` [9-amino-5-(1,3-dimethyl-1H-pyrazol-5-yl)-2-(4-methoxybenzyl)-2,3-dihydro-1H-pyrrolo[3,4-b]quinolin-1-one], in that order: 0.64, 10.3 nM and 0.45.
The corresponding values for `CCCN1Cc2nc3c(-c4cc(C)nn4C)cccc3c(N)c2C1=O` [9-amino-5-(1,3-dimethyl-1H-pyrazol-5-yl)-2-propyl-2,3-dihydro-1H-pyrrolo[3,4-b]quinolin-1-one] are 0.57, 21.5 nM and 0.49.
In the case of `CCN1Cc2nc3c(-c4ccc(F)cc4F)c(F)ccc3c(N)c2C1=O` [9-amino-5-(2,4-difluorophenyl)-2-ethyl-6-fluoro-2,3-dihydro-1H-pyrrolo[3,4-b]quinolin-1-one], the “Relative Potentiation for GABAA2” value in assay [1] was 0.064. In assay [2], this compound came in with a Ki of 3.85 nM. Besides, in assay [3], the “Relative Potentiation for GABAA1” value is on record as −0.038.
The corresponding values for `CCCN1Cc2nc3c(-c4ccc(OC)cc4OC)cccc3c(N)c2C1=O` [9-amino-5-(2,4-dimethoxyphenyl)-2-propyl-2,3-dihydro-1H-pyrrolo[3,4-b]quinolin-1-one] are 0.31, 49.8 nM and 0.25.
Consider `CCCN1Cc2nc3c(-c4cc(Cl)ccc4Cl)cccc3c(N)c2C1=O` [9-amino-5-(2,5-dichlorophenyl)-2-propyl-2,3-dihydro-1H-pyrrolo[3,4-b]quinolin-1-one], for which, in assay [1], the “Relative Potentiation for GABAA2” value was found to be 0.32. Also, in assay [2], the affinity corresponds to a Ki of 11.8 nM. Also, the “Relative Potentiation for GABAA1” value in assay [3] was determined as 0.31.
Regarding `CCCN1Cc2nc3c(-c4cc(F)ccc4F)cccc3c(N)c2C1=O` [9-amino-5-(2,5-difluorophenyl)-2-propyl-2,3-dihydro-1H-pyrrolo[3,4-b]quinolin-1-one], the “Relative Potentiation for GABAA2” value in assay [1] worked out at 0.33. The compound also returned a Ki in assay [2] of 34.8 nM. Besides, the “Relative Potentiation for GABAA1” value in assay [3] was 0.21.
The corresponding values for `CCCN1Cc2nc3c(-c4cc(C)ccc4C)cccc3c(N)c2C1=O` [9-amino-5-(2,5-dimethylphenyl)-2-propyl-2,3-dihydro-1H-pyrrolo[3,4-b]quinolin-1-one] are 0.2, 56.8 nM and 0.22.
Take `CCN1Cc2nc3c(-c4c(F)cc(OC)cc4F)c(F)ccc3c(N)c2C1=O` [9-amino-5-(2,6-difluoro-4-methoxyphenyl)-2-ethyl-6-fluoro-2,3-dihydro-1H-pyrrolo[3,4-b]quinolin-1-one]: the “Relative Potentiation for GABAA2” value in assay [1] is on record as −0.02. For the same compound, affinity in assay [2] was put at a Ki of 4.5 nM. Further, the “Relative Potentiation for GABAA1” value in assay [3] is recorded as −0.09.
For `CCCN1Cc2nc3c(-c4ccc(C)nc4C)cccc3c(N)c2C1=O` [9-amino-5-(2,6-dimethylpyridin-3-yl)-2-propyl-2,3-dihydro-1H-pyrrolo[3,4-b]quinolin-1-one], in that order: 0.41, 2.63 nM and 0.45.
As to `CCCN1Cc2nc3c(-c4cc(C)cnc4Cl)cccc3c(N)c2C1=O` [9-amino-5-(2-chloro-5-methylpyridin-3-yl)-2-propyl-2,3-dihydro-1H-pyrrolo[3,4-b]quinolin-1-one], the “Relative Potentiation for GABAA2” value in assay [1] was 0.61. The same compound gave a Ki in assay [2] of 6.63 nM. In assay [3], the “Relative Potentiation for GABAA1” value was determined as 0.44.
In the case of `COc1cccc(Cl)c1-c1cccc2c(N)c3c(nc12)CN(C1CCC1)C3=O` [9-amino-5-(2-chloro-6-methoxyphenyl)-2-cyclobutyl-2,3-dihydro-1H-pyrrolo[3,4-b]quinolin-1-one], in assay [1], the “Relative Potentiation for GABAA2” value was 0.051. Moreover, the affinity in assay [2] corresponds to a Ki of 2.22 nM. Further, the “Relative Potentiation for GABAA1” value in assay [3] is listed as −0.15.
The corresponding values for `COc1cccc(Cl)c1-c1cccc2c(N)c3c(nc12)CN(C1CC1)C3=O` [9-amino-5-(2-chloro-6-methoxyphenyl)-2-cyclopropyl-2,3-dihydro-1H-pyrrolo[3,4-b]quinolin-1-one] are 0.052, 14.9 nM and −0.1.
For `COc1cccc(Cl)c1-c1c(F)ccc2c(N)c3c(nc12)CN(C1CC1)C3=O` [9-amino-5-(2-chloro-6-methoxyphenyl)-2-cyclopropyl-6-fluoro-2,3-dihydro-1H-pyrrolo[3,4-b]quinolin-1-one], in that order: 0.013, 4.85 nM and −0.15.
For `CCCN1Cc2nc3c(-c4cc(OC)ccc4F)cccc3c(N)c2C1=O` [9-amino-5-(2-fluoro-5-methoxyphenyl)-2-propyl-2,3-dihydro-1H-pyrrolo[3,4-b]quinolin-1-one], in assay [1], the “Relative Potentiation for GABAA2” value turned out to be 0.39. In assay [2], this compound registered a Ki of 12.5 nM. Further, in assay [3], the “Relative Potentiation for GABAA1” value is 0.39.
